This is an account of results in US7008633B2 (priority 2000, dated 2006).

One series deals with multiple myeloma. To be noted: oral administration; cited from earlier work.
The conditions of series [1]: in vivo, cited from earlier work.
A short description of series [2]: Blood chemical assay (BUN, serum creatinine) to detect renal toxicity. It counts as in vivo, rat. As to conditions: for BUN / SERUM CREATININE: intratumoral 3 MG/KD, breast tumor-bearing rats. The procedure: The SA-CDDP (0.1 ml; cisplatin dose was 3 mg/kg body weight) was injected directly into the tumors through 27 G needles. In a preferred embodiment, about […] SA is used per injection. Calcium chloride (8% in water) was then injected into the same place to form cisplatin-loaded alginate beads in the tumors. The tumor size was measured to determine the anticancer effect, and the blood chemical assay (blood urea nitrogen [BUN] and serum creatinine) were performed to detect renal toxicity.
On day 40, BUN in five experimental rats and five healthy rats (control) were 18.30±1.51 mg/dl and 17.88±2.24 mg/dl, respectively. There was no statistical significance (p>0.05) between the two. Serum creatinine levels were the same as in both experimental and control rats (0.6 mg/dl).

Series [3] is described as follows: In vitro slow release of cisplatin from alginate beads. It counts as physicochemical. As to conditions: incubated in PBS at 37° C. The procedure:
To study in vitro slow release of an anticancer drug from a polymer, the anticancer drug cisplatin and the polymer sodium alginate were tested for slow release of the drug. Cisplatin-loaded alginate beads (SA-CDDP) were formed instantly and then incubated in phosphate-buffered saline (PBS) in tubes at 37° C. Cisplatin was completely released from the alginate beads in 15 hours, which is considerably slower than the release time (within 2.5 hours) of cisplatin powder only (control) (FIG. 1).

For series [4] the following is noted: in vivo; cited from earlier work.

Structures can show the parent of a compound that is named as a salt. Numbered stars: 1 amine (or outer) side, 2 acyl side, 3 side chain; on linkers, the order of the positions; unused ones are H or OH. Bridge positions count the residues as written; N and C are the ends. Square brackets hold non-standard residues; d marks the D form. Peptide text beside a SMILES is read from it. I, II: the chains in the order shown. Actinocin(9to1) = Cc1c2oc3c(C)ccc(C(=O)[*:1])c3nc-2c(C(=O)[*:2])c(N)c1=O; NMeV = CN[C@H](C(=O)O)C(C)C; Sar = CNCC(=O)O

In the case of `N[C@@H](Cc1ccc(N(CCCl)CCCl)cc1)C(=O)O` [Melphalan, 4-[bis(2-chloroethyl)amino]-L-phenylalanine], in the series with multiple myeloma, the “share of patients with a favorable response” value is “about one third to one half”.

On to `O=NN(CCCl)C(=O)NC1CCCCC1` [Lomustine, 1-(2-chloro-ethyl)-3-cyclohexyl-1 nitrosourea], for which the “radioactivity excreted in the form of degradation products” value in series [1] (po) is recorded as “about half”.

As to `COc1cccc2c1C(=O)c1c(O)c3c(c(O)c1C2=O)C[C@@](O)(C(C)=O)C[C@@H]3O[C@H]1C[C@H](N)[C@H](O)[C@H](C)O1` [Daunorubicin, 5,12-Naphthacenedione, (8S-cis)-8-acetyl-10-[(3-amino-2,3,6-trideoxy-a-L-lyxo-hexanopyranosyl)oxy]-7,8,9,10-tetrahydro-6,8,11-trihydroxy-10-methoxy-, hydrochloride], the oral absorption entry in series [1] (po) is “Oral absorption is poor”.

Regarding `[NH2][Pt]([NH2])([Cl])[Cl]` [CDDP, cisplatin], the nephrotoxicity entry in series [2] (CDDP intratumorally) is “a clear nephrotoxicity was observed”. Besides, the BUN in series [2] (day 2) was 56.21 mg/dL; in series [2] (day 5) it was 246.42 mg/dL; in series [2] (day 7), 152.35 mg/dL; in series [2] (day 16), 41.75 mg/dL. For the same molecule, the “SERUM CREATININE” value in series [2] (day 2) worked out at 1.5 mg/dL; in series [2] (day 5), 7.03 mg/dL; in series [2] (day 7), 2.4 mg/dL; in series [2] (day 16), 0.7 mg/dL. Also, the “time to complete release of cisplatin” value in series [3] was at most 2.5 h. Moreover, the oral absorption entry in series [1] (po) is listed as “not absorbed orally”.

On to `CC[C@]1(O)C[C@@H]2CN(CCc3c([nH]c4ccccc34)[C@@](C(=O)OC)(c3cc4c(cc3OC)N(C)[C@H]3[C@@](O)(C(=O)OC)[C@H](OC(C)=O)[C@]5(CC)C=CCN6CC[C@]43[C@@H]65)C2)C1` [Vinblastine], for which the “share of the dose excreted or detected intact in the urine” value in series [1] is on record as “Approximately 15%”.

Regarding `CO[C@@]12[C@H](COC(N)=O)C3=C(C(=O)C(C)=C(N)C3=O)N1C[C@@H]1N[C@@H]12` [Mitomycin], the “share of a dose excreted unchanged in the urine” value in series [4] is “Approximately 10%”.

Take `Cc1c2oc3c(C)ccc(C(=O)N[C@@H]4C(=O)N[C@H](C(C)C)C(=O)N5CCC[C@H]5C(=O)N(C)CC(=O)N(C)[C@@H](C(C)C)C(=O)O[C@@H]4C)c3nc-2c(C(=O)N[C@@H]2C(=O)N[C@H](C(C)C)C(=O)N3CCC[C@H]3C(=O)N(C)CC(=O)N(C)[C@@H](C(C)C)C(=O)O[C@@H]2C)c(N)c1=O` [Actinomycin D] (I: T[dV]P[Sar][NMeV] / II: T[dV]P[Sar][NMeV]; ester I:1-I:C, II:1-II:C; linker I:N-II:N via Actinocin(9to1)): in series [1], the “share of the dose excreted intact into the bile” value was “Half of the dose” and the “share of the dose excreted or detected intact in the urine” value was 10%.
